Measured values from patent publication US20250186408A1, “TREATMENT OF PHARMACORESISTANT EPILEPSY” (Katholieke Universiteit Leuven, priority 2021, published 2025).

The compounds below were run on EKP-induced epileptiform discharges in zebrafish larvae (assay: Zebrafish EKP seizure model, electrophysiology (non-invasive LFP recordings, PSD analysis)). Settings: 2 μM, 22 h incubation, 7 dpf larvae; mean, normalized PSD 20-90 Hz.
Assay type: in vivo, zebrafish (Danio rerio)
Protocol: Non-invasive LFP recordings were measured from the midbrain (optic tectum) of 7 dpf zebrafish larvae pre-incubated with VHC only, EKP only, or compound and EKP. […] These steps occurred at 28° C., while further manipulation and electrophysiological recordings occurred at room temperature (±21° C.) and were performed as described before (16, 27). Each recording lasted 600 seconds.
A power spectral density (PSD) analysis of the recordings was performed using MatLab R2019 software (MATrix LABoratory, USA) as described in (26). The PSD estimate of each LFP recording was summed over each 10 Hz frequency band, ranging from 0 to 160 Hz. Next, the PSD estimates were normalized against the VHC control. Data are expressed as mean±SEM PSD per larva and per condition over the 20-90 Hz region. Outliers were identified via the ROUT test (Q=1%).
PSD analysis assumes that the epileptiform activity manifests as a high-power oscillation at certain frequencies (26). Thus, if epileptic activity occurs often during the recording an elevated PSD estimate should be found at the corresponding frequency band(s) (26).

SMILES | efficacy against EKP-induced epileptiform discharges 2 μM [%]
CCSC(=CC(=O)c1ccccc1)c1ccc(C(C)(C)C)cc1 (mixture of isomers) [Compound 5.1, (E/Z)-3-(4-(tert-butyl)phenyl)-3-(ethylthio)-1-phenylprop-2-en-1-one] | 36
COc1ccccc1C(O)C#Cc1ccc(C(C)(C)C)cc1 (racemic) [Compound 3.1, rac-3-(4-(tert-butyl)phenyl)-1-(2-methoxyphenyl)prop-2-yn-1-ol] | 79
CC(C)(C)c1ccc(C#CC(O)c2ccccc2O)cc1 (racemic) [Compound 3.2, rac-2-(3-(4-(tert-butyl)phenyl)-1-hydroxyprop-2-yn-1-yl)phenol] | 26
Nc1ncccc1C(O)C#Cc1cccc(Cl)c1 (racemic) [Compound 3.4, rac-1-(2-aminopyridin-3-yl)-3-(3-chlorophenyl)prop-2-yn-1-ol] | 7
Nc1ncccc1C(=O)C#Cc1ccccc1 [Compound 1.1, 1-(2-aminopyridin-3-yl)-3-phenylprop-2-yn-1-one] | 65
Nc1ncccc1C(=O)C#Cc1ccc(F)cc1 [Compound 1.2, 1-(2-aminopyridin-3-yl)-3-(4-fluorophenyl)prop-2-yn-1-one] | 80
CC(C)[Si](C#CC(=O)c1cccnc1N)(C(C)C)C(C)C [Compound 1.3, 1-(2-aminopyridin-3-yl)-3-(triisopropylsilyl)prop-2-yn-1-one] | 67
Nc1ncccc1C(=O)C#CC1CCCCC1 [Compound 1.4, 1-(2-aminopyridin-3-yl)-3-cyclohexylprop-2-yn-1-one] | 69
CCCCCC#CC(=O)c1cccnc1N [Compound 1.5, 1-(2-aminopyridin-3-yl)oct-2-yn-1-one] | 91
CC(C)C#CC(=O)c1cccnc1N [Compound 1.6, 1-(2-aminopyridin-3-yl)-4-methylpent-2-yn-1-one] | 1
Nc1ncccc1C(=O)C#Cc1ccc(Cl)cc1 [Compound 1.7, 1-(2-aminopyridin-3-yl)-3-(4-chlorophenyl)prop-2-yn-1-one] | 70
COC(=O)c1ccc(C#CC(=O)c2cccnc2N)cc1 [Compound 1.8, methyl 4-(3-(2-aminopyridin-3-yl)-3-oxoprop-1-yn-1-yl)benzoate] | 18
COc1ccc(C#CC(=O)c2cccnc2N)cc1 [Compound 1.9, 1-(2-aminopyridin-3-yl)-3-(4-methoxyphenyl)prop-2-yn-1-one] | 35
Nc1ncccc1C(=O)C#Cc1cccc(Cl)c1 [Compound 1.10, 1-(2-aminopyridin-3-yl)-3-(3-chlorophenyl)prop-2-yn-1-one] | −42
Nc1ncccc1C(=O)C#Cc1ccc(C(F)(F)F)cc1 [Compound 1.11, 1-(2-aminopyridin-3-yl)-3-(4-(trifluoromethyl)phenyl)prop-2-yn-1-one] | 47
Cc1ccc(C#CC(=O)c2cccnc2N)cc1 [Compound 1.12, 1-(2-aminopyridin-3-yl)-3-(p-tolyl)prop-2-yn-1-one] | 86
CC(C)(C)c1ccc(C#CC(=O)c2ccccc2N)cc1 [Compound 1.14, 1-(2-aminophenyl)-3-(4-(tert-butyl)phenyl)prop-2-yn-1-one] | 60
CC(C)(C)c1ccc(C#CC(=O)c2cccnc2)cc1 [Compound 1.15, 3-(4-(tert-butyl)phenyl)-1-(pyridin-3-yl)prop-2-yn-1-one] | −49

SMILES | efficacy against EKP-induced epileptiform discharges 2 μM [%]
CC(C)(C)c1ccc(C#CC(=O)c2ccccc2)cc1 [Compound 1.16, 3-(4-(tert-butyl)phenyl)-1-phenylprop-2-yn-1-one] | 38
Nc1ncccc1C(=O)C#Cc1cccc(C(F)(F)F)c1 [Compound 1.17, 1-(2-aminopyridin-3-yl)-3-(3-(trifluoromethyl)phenyl)prop-2-yn-1-one] | 61
COc1ccccc1C(=O)C#Cc1ccc(C(C)(C)C)cc1 [Compound 1.18, 3-(4-(tert-butyl)phenyl)-1-(2-methoxyphenyl)prop-2-yn-1-one] | 71
CC(C)(C)c1ccc(C#CC(=O)c2ccccc2O)cc1 [Compound 1.19, 3-(4-(tert-butyl)phenyl)-1-(2-hydroxyphenyl)prop-2-yn-1-one] | −23
CC(C)(C)c1ccc(C#CC(=O)c2ncccc2N)cc1 [Compound 1.24, 1-(3-aminopyridin-2-yl)-3-(4-(tert-butyl)phenyl)prop-2-yn-1-one] | 45
O=C(C#Cc1cccc(Cl)c1)c1cccnc1 [Compound 1.25, 3-(3-chlorophenyl)-1-(pyridin-3-yl)prop-2-yn-1-one] | −43
O=C(C#Cc1cccc(Cl)c1)c1ncc[nH]1 [Compound 1.26, 3-(3-chlorophenyl)-1-(1H-imidazol-2-yl)prop-2-yn-1-one] | 51
CN(C)c1ncccc1C(=O)C#Cc1cccc(Cl)c1 [Compound 1.27, 3-(3-chlorophenyl)-1-(2-(dimethylamino)pyridin-3-yl)prop-2-yn-1-one] | −52
O=C(C#Cc1ccccc1)c1ccccc1 [Compound 1.28, 1,3-diphenylprop-2-yn-1-one] | 25
COc1ccc(C#CC(=O)c2ccccc2)cc1 [Compound 1.29, 3-(4-methoxyphenyl)-1-phenylprop-2-yn-1-one] | 26
Cc1ccc(C#CC(=O)c2ccccc2)cc1 [Compound 1.30, 1-phenyl-3-(p-tolyl)prop-2-yn-1-one] | 28
COc1cccc(C#CC(=O)c2ccccc2)c1 [Compound 1.32, 3-(3-methoxyphenyl)-1-phenylprop-2-yn-1-one] | 29
Cc1cccc(C#CC(=O)c2ccccc2)c1 [Compound 1.33, 1-phenyl-3-(m-tolyl)prop-2-yn-1-one] | 50
O=C(C#Cc1cccc(Cl)c1)c1ccccc1 [Compound 1.34, 3-(3-chlorophenyl)-1-phenylprop-2-yn-1-one] | 21
COc1ccccc1C#CC(=O)c1ccccc1 [Compound 1.36, 3-(2-methoxyphenyl)-1-phenylprop-2-yn-1-one] | 52
Cc1ccccc1C#CC(=O)c1ccccc1 [Compound 1.37, 1-phenyl-3-(o-tolyl)prop-2-yn-1-one] | 28
O=C(C#Cc1ccccc1Cl)c1ccccc1 [Compound 1.38, 3-(2-chlorophenyl)-1-phenylprop-2-yn-1-one] | −63

Same assay, conditions: 10 μM, 22 h incubation, 7 dpf larvae; mean, normalized PSD 20-90 Hz

SMILES | efficacy against EKP-induced epileptiform discharges 10 μM [%]
CC(C)(C)c1ccc(C#CC(O)c2ccccc2O)cc1 (racemic) [Compound 3.2, rac-2-(3-(4-(tert-butyl)phenyl)-1-hydroxyprop-2-yn-1-yl)phenol] | 57
Nc1ncccc1C(O)C#Cc1cccc(Cl)c1 (racemic) [Compound 3.4, rac-1-(2-aminopyridin-3-yl)-3-(3-chlorophenyl)prop-2-yn-1-ol] | 7
CC(C)[Si](C#CC(=O)c1cccnc1N)(C(C)C)C(C)C [Compound 1.3, 1-(2-aminopyridin-3-yl)-3-(triisopropylsilyl)prop-2-yn-1-one] | −23
CC(C)(C)c1ccc(C#CC(=O)c2ncccc2N)cc1 [Compound 1.24, 1-(3-aminopyridin-2-yl)-3-(4-(tert-butyl)phenyl)prop-2-yn-1-one] | 11
